Counter-ions that a name gives are not always drawn.
Each molecule was assayed against AaDOP2 (Aedes aegypti, UniProt H6D5H2) (assay: AaDOP2 antagonist screen of the LOPAC1280 library (HEK-CRELuc-Aadop2 cells, luminescence)). Conditions: not given.
Format: cell-based

AaDOP2, sequence (H6D5H2 1-476): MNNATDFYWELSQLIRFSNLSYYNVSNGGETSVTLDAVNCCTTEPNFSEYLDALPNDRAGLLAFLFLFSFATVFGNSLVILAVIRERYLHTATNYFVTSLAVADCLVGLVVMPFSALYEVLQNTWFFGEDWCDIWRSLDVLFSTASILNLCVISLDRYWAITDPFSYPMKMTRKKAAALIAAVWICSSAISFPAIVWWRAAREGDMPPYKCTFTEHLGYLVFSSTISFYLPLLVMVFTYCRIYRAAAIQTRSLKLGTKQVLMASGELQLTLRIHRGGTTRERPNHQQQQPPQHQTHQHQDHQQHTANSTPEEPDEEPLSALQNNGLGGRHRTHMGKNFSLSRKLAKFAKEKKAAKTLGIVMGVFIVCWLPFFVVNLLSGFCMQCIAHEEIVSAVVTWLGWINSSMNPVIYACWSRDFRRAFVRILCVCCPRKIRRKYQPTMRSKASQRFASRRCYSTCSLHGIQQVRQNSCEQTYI

Structure (SMILES) | Compound effect (percent receptor signaling in presence of test compound, relative lux units relative to the SCH23390 control)
Nc1ncnc2c1ncn2C1CCCC1 [Compound 260, 9-cyclopentyladenine] | 116
CC(=O)OCC1=C(C(=O)O)N2C(=O)[C@@H](NC(=O)Cc3cccs3)[C@H]2SC1 [Compound 261, Cephalothin sodium] | 92
CN/C(=N/CCSCc1nc[nH]c1C)NC#N [Compound 262, Cimetidine] | 88
CN(C)CCC=C1c2ccccc2C=Cc2ccccc21 [Compound 263, Cyclobenzaprine hydrochloride] | 106
CCN(CC)CCOCCOC(=O)C1(c2ccccc2)CCCC1 [Compound 264, Carbetapentane citrate] | 93
CN(C)CC[C@@H](c1ccc(Cl)cc1)c1ccccn1 [Compound 267, (+)-Chlorpheniramine maleate] | 106
Cc1nnc(SCC2=C(C(=O)O)N3C(=O)[C@@H](NC(=O)Cn4cnnn4)[C@H]3SC2)s1 [Compound 268, Cefazolin sodium] | 96
Cl.Clc1ccc(Cn2c(CN3CCCC3)nc3ccccc32)cc1 [Compound 269, Clemizole hydrochloride] | 96
Nc1nc(Cl)nc2c1ncn2[C@@H]1O[C@H](CO)[C@@H](O)[C@H]1O [Compound 270, 2-Chloroadenosine] | 118
CC(C[N+](C)(C)C)OC(N)=O (stereo not shown) [Compound 271, Bethanechol chloride] | 116
Cl.Cl.Clc1cccc(N2CCNCC2)c1 [Compound 273, 1-(3-Chlorophenyl)piperazine dihydrochloride] | 99
Cc1cc(NC(=O)Nc2ccc3c(ccn3C)c2)sn1 [Compound 274, SB 204741] | 95
CO/N=C(\C(=O)N[C@@H]1C(=O)N2C(C(=O)O)=C(CSc3nc(=O)c(=O)[nH]n3C)CS[C@H]12)c1csc(N)n1 [Compound 275, Ceftriaxone sodium] | 97
O=C(O)c1cc[c]([Hg][Cl])cc1 [Compound 276, 4-Chloromercuribenzoic acid] | 96
CN1C(=O)CC[C@H]1c1cccnc1 [Compound 277, (-)-Cotinine] | 96
C[C@H](Cc1ccc2c(c1)OC(C(=O)O)(C(=O)O)O2)NC[C@H](O)c1cccc(Cl)c1 [Compound 278, CL 316,243] | 101
Oc1cc(-c2ccccc2)nc2nc(Cl)ccc12 [Compound 279, 7-Chloro-4-hydroxy-2-phenyl-1,8-naphthyridine] | 100
Clc1ccccc1C(c1ccccc1)(c1ccccc1)n1ccnc1 [Compound 280, Clotrimazole] | 77
CN1CCC(=C2c3ccccc3C=Cc3ccccc32)CC1 [Compound 281, Cyproheptadine hydrochloride] | 86
CO[C@@]1(NC(=O)CSCC#N)C(=O)N2C(C(=O)O)=C(CSc3nnnn3C)CS[C@@H]21 [Compound 283, Cefmetazole sodium] | 74
CCN(CC)CCCC(C)Nc1ccnc2cc(Cl)ccc12 (stereo not shown) [Compound 286, Chloroquine diphosphate] | 83
CCOC(=O)C(C)(C)Oc1ccc(Cl)cc1 [Compound 287, Clofibrate] | 74
CCCN(CCC)C(=O)Cc1c(-c2ccc(Cl)cc2)nc2c(Cl)cc(Cl)cn12 [Compound 289, CB34] | 106
N[C@@H](C(=O)N[C@@H]1C(=O)N2C(C(=O)O)=C(Cl)CS[C@H]12)c1ccccc1 [Compound 290, Cefaclor] | 87

Structure (SMILES) | Compound effect (percent receptor signaling in presence of test compound, relative lux units relative to the SCH23390 control)
C[N+](C)(C)CC#CCOC(=O)Nc1cccc(Cl)c1.[Cl-] [Compound 292, McN-A-343] | 121
COc1cccc(C(=O)NCCN2CCN(c3ccc(Cl)cc3)CC2)c1 [Compound 293, N-(2-[4-(4-Chlorophenyl)piperazin-1-yl]ethyl)-3-methoxybenzamide] | 95
NCCSSCCN [Compound 294, Cystamine dihydrochloride] | 84
CNc1ccc2oc(C[C@H]3O[C@@]4(CC[C@H]3C)O[C@H]([C@H](C)C(=O)c3ccc[nH]3)[C@H](C)C[C@H]4C)nc2c1C(=O)O [Compound 296, Calcimycin] | 102
C[C@@]12C(=O)OC(=O)[C@]1(C)[C@H]1CC[C@@H]2O1 [Compound 297, Cantharidin] | 96
CN(C)CCCC1(c2ccc(F)cc2)OCc2cc(C#N)ccc21 (stereo not shown) [Compound 298, Citalopram hydrobromide] | 90
Clc1cccc(Cl)c1N=C1NCCN1 [Compound 299, Clonidine hydrochloride] | 100
CO/N=C(\C(=O)N[C@@H]1C(=O)N2C(C(=O)O)=C(COC(C)=O)CS[C@H]12)c1csc(N)n1 [Compound 300, Cefotaxime sodium] | 93
CN(C(=O)CCCOc1ccc2[nH]c(=O)ccc2c1)C1CCCCC1 [Compound 301, Cilostamide] | 88
O=C(O)c1cc(O)cc(C(=O)O)n1 [Compound 302, Chelidamic acid] | 82
OC[C@H]1O[C@@H](n2cnc3c(NC4CCCC4)ncnc32)[C@H](O)[C@@H]1O [Compound 303, N6-Cyclopentyladenosine] | 89
CC1(C(=O)O)C2CCC(O2)C1(C)C(=O)O (stereo not shown) [Compound 304, Cantharidic Acid] | 120
CN(C)CCCN1c2ccccc2Sc2ccc(Cl)cc21 [Compound 305, Chlorpromazine hydrochloride] | 95
O=C(/C=C/c1ccc(O)c(O)c1)OCCc1ccccc1 [Compound 307, Caffeic acid phenethyl ester] | 147
CC(=O)OCC1=C(C(=O)O)N2C(=O)[C@@H](NC(=O)CSc3ccncc3)[C@H]2SC1 [Compound 308, Cephapirin sodium] | 116
CC1=C(C(=O)O)N2C(=O)[C@@H](NC(=O)[C@H](N)C3=CCC=CC3)[C@H]2SC1 [Compound 309, Cephradine] | 79
CCN(CCCl)Cc1ccccc1Br.Cl [Compound 310, DSP-4 hydrochloride] | 111
CCn1nc(C(=O)O)c(=O)c2cc3c(cc21)OCO3 [Compound 311, Cinoxacin] | 135
CCCC(C)(COC(N)=O)COC(=O)NC(C)C (stereo not shown) [Compound 312, Carisoprodol] | 130
CN(C)CCOC(=O)COc1ccc(Cl)cc1 [Compound 313, Centrophenoxine hydrochloride] | 99
Cl.N[C@@H](CCl)C(=O)O [Compound 315, beta-Chloro-L-alanine hydrochloride] | 99
Oc1ccccc1O [Compound 316, Pyrocatechol] | 101
O=C(N[C@@H](Cc1ccccc1)C(=O)CCl)OCc1ccccc1 [Compound 317, Z-L-Phe chloromethyl ketone] | 124
COc1cc2c(c(OC)c1OC)-c1ccc(OC)c(=O)cc1[C@@H](NC(C)=O)CC2 [Compound 319, Colchicine] | 131

Same assay, conditions: 10 µM compound, 300 nM dopamine, 2 hr; hit = compound effect <20

Structure (SMILES) | Compound effect (percent receptor signaling in presence of test compound, relative lux units relative to the SCH23390 control)
CC1=C(C(=O)O)N2C(=O)[C@@H](NC(=O)[C@H](N)c3ccccc3)[C@H]2SC1.O [Compound 265, Cephalexin hydrate] | 87%
Nc1ncnc2c1ncn2[C@@H]1O[C@H](C(=O)NC2CC2)[C@@H](O)[C@H]1O [Compound 282, 5'-(N-Cyclopropyl)carboxamidoadenosine] | 82%
Cl.Nc1ccn([C@@H]2O[C@H](CO)[C@@H](O)[C@@H]2O)c(=O)n1 [Compound 288, Cytosine-1-beta-D-arabinofuranoside hydrochloride] | 92%
NC(=O)c1cc[n+](CC2=C(C(=O)[O-])N3C(=O)[C@@H](NC(=O)[C@@H](c4ccccc4)S(=O)(=O)[O-])[C@H]3SC2)cc1.[Na+] [Compound 306, Cefsulodin sodium salt hydrate] | 108%

Source: article PMC3265452 (PLoS Neglected Tropical Diseases, 2012)
